According to the supplement of paper PMC11061612:

Columns and labels:
AZD0156 = compound: CN(C)CCCOc1ccc(-c2ccc3ncc4c(c3c2)n(C2CCOCC2)c(=O)n4C)cn1 [AZD0156]; conditions: max 3 µM
Outline: (§1)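 Cancer cell lines were seeded into 1536-well plates in 7.5 μl medium (DMEM/F12 or RPMI, 10% FBS), held 24 hours at 37°C and 5% CO2, and dosed for 72 hours with final DMSO typically 0.2%. Luminescence from CellTiter-Glo 2.0, scaled between blank-well and DMSO-well means, served as viability. The single-agent IC50 was obtained from dose-response fits with a non-linear mixed effects model, each fit being a two-parameter logistic curve.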

Savolitinib = compound: C[C@@H](c1ccc2nccn2c1)n1nnc2ncc(-c3cnn(C)c3)nc21 [Savolitinib]; conditions: max 1 µM
Outline: as §1

Gemcitabine = compound: Nc1ccn([C@@H]2O[C@H](CO)[C@@H](O)C2(F)F)c(=O)n1 [Gemcitabine]; conditions: max 0.3 µM
Outline: as §1

Etoposide = compound: COc1cc([C@@H]2c3cc4c(cc3[C@@H](O[C@@H]3O[C@@H]5CO[C@@H](C)O[C@H]5[C@H](O)[C@H]3O)[C@H]3COC(=O)[C@H]23)OCO4)cc(OC)c1O [Etoposide]; conditions: max 10 µM
Outline: as §1

AZD5363 = compound: C1CN(CCC1(C(=O)N[C@@H](CCO)C2=CC=C(C=C2)Cl)N)C3=NC=NC4=C3C=CN4 [AZD5363]; conditions: max 10 µM
Outline: as §1

AZD1390 = compound: CC(C)n1c(=O)n(C)c2cnc3cc(F)c(-c4ccc(OCCCN5CCCCC5)nc4)cc3c21 [AZD1390]; conditions: max 0.3 µM
Outline: as §1

AZD5153 = compound: COc1nnc2ccc(N3CCC(c4ccc(OCCN5CCN(C)C(=O)[C@H]5C)cc4)CC3)nn12 [AZD5153]; conditions: max 1 µM
Outline: as §1

AZD4320 = compound: CN(CC[C@H](CSC1=CC=CC=C1)NC2=C(C=C(C=C2)S(=O)(=O)NC(=O)C3=CC=C(C=C3)N4CCC(CC4)[C@H](C5=CC=CC=C5C6=CC=C(C=C6)Cl)O)S(=O)(=O)C(F)(F)F)CCO [AZD4320]; conditions: max 1 µM
Outline: as §1

Palbociclib = compound: CC(=O)c1c(C)c2cnc(Nc3ccc(N4CCNCC4)cn3)nc2n(C2CCCC2)c1=O [Palbociclib]; conditions: max 10 µM
Outline: as §1

AZD6738 = compound: C[C@@H]1COCCN1C2=NC(=NC(=C2)C3(CC3)[S@](=N)(=O)C)C4=C5C=CNC5=NC=C4 [AZD6738]; conditions: max 10 µM
Outline: as §1

SRA737 = compound: N#Cc1cnc(Nc2cc(NC[C@H]3CNCCO3)c(C(F)(F)F)cn2)cn1 [SRA737]; conditions: max 10 µM
Outline: as §1

SG3199 = compound: CC1=CN2[C@@H](C1)C=NC3=CC(=C(C=C3C2=O)OC)OCCCCCOC4=C(C=C5C(=C4)N=C[C@@H]6CC(=CN6C5=O)C)OC [SG3199]; conditions: max 0.001 µM
Outline: as §1

Olaparib = compound: O=C(c1cc(Cc2n[nH]c(=O)c3ccccc23)ccc1F)N1CCN(C(=O)C2CC2)CC1 [Olaparib]; conditions: max 10 µM
Outline: as §1

5-Fluorouracil = compound: O=c1[nH]cc(F)c(=O)[nH]1 [5-Fluorouracil]; conditions: max 20 µM
Outline: as §1

Lapatinib = compound: CS(=O)(=O)CCNCc1ccc(-c2ccc3ncnc(Nc4ccc(OCc5cccc(F)c5)c(Cl)c4)c3c2)o1 [Lapatinib]; conditions: max 10 µM
Outline: as §1

Gefitinib = compound: COc1cc2ncnc(Nc3ccc(F)c(Cl)c3)c2cc1OCCCN1CCOCC1 [Gefitinib]; conditions: max 10 µM
Outline: as §1

Selumetinib = compound: Cn1cnc2c(F)c(Nc3ccc(Br)cc3Cl)c(C(=O)NOCCO)cc21 [Selumetinib]; conditions: max 10 µM
Outline: as §1

AZD5991 = compound: Cc1c2c(nn1C)CSCc1cc(n(C)n1)CSc1cc(c3ccccc3c1)OCCCc1c(C(=O)O)n(C)c3c-2c(Cl)ccc13 [AZD5991]; conditions: max 1 µM
Outline: as §1

Doxorubicin = compound: COc1cccc2c1C(=O)c1c(O)c3c(c(O)c1C2=O)C[C@@](O)(C(=O)CO)C[C@@H]3O[C@H]1C[C@H](N)[C@H](O)[C@H](C)O1 [Doxorubicin]; conditions: max 1 µM
Outline: as §1

Paclitaxel = compound: CC(=O)O[C@H]1C(=O)[C@@]2(C)[C@H]([C@H](OC(=O)c3ccccc3)[C@]3(O)C[C@H](OC(=O)[C@H](O)[C@@H](NC(=O)c4ccccc4)c4ccccc4)C(C)=C1C3(C)C)[C@]1(OC(C)=O)CO[C@@H]1C[C@@H]2O [Paclitaxel]; conditions: max 3 µM
Outline: as §1

Crizotinib = compound: C[C@@H](Oc1cc(-c2cnn(C3CCNCC3)c2)cnc1N)c1c(Cl)ccc(F)c1Cl [Crizotinib]; conditions: max 10 µM
Outline: as §1

MK-2206 = compound: NC1(c2ccc(-c3nc4ccn5c(=O)[nH]nc5c4cc3-c3ccccc3)cc2)CCC1 [MK-2206]; conditions: max 10 µM
Outline: as §1

Dasatinib = compound: CC1=C(C(=CC=C1)Cl)NC(=O)C2=CN=C(S2)NC3=CC(=NC(=N3)C)N4CCN(CC4)CCO [Dasatinib]; conditions: max 2 µM
Outline: as §1

Carboplatin = compound: C1CC(C1)(C(=O)[O-])C(=O)[O-].N.N.[Pt+2] [Carboplatin]; conditions: max 10 µM
Outline: as §1

AZD7648 = compound: Cc1cc2ncnn2cc1Nc1ncc2c(n1)n(C1CCOCC1)c(=O)n2C [AZD7648]; conditions: max 10 µM
Outline: as §1

Taselisib = compound: Cc1nc(-c2cn3c(n2)-c2ccc(-c4cnn(C(C)(C)C(N)=O)c4)cc2OCC3)n(C(C)C)n1 [Taselisib]; conditions: max 10 µM
Outline: as §1

Prexasertib = compound: COc1cccc(OCCCN)c1-c1cc(Nc2cnc(C#N)cn2)n[nH]1 [Prexasertib]; conditions: max 1 µM
Outline: as §1

AZD1775 = compound: C=CCn1c(=O)c2cnc(Nc3ccc(N4CCN(C)CC4)cc3)nc2n1-c1cccc(C(C)(C)O)n1 [AZD1775]; conditions: max 3 µM
Outline: as §1

SN-38 = compound: CCc1c2c(nc3ccc(O)cc13)-c1cc3c(c(=O)n1C2)COC(=O)[C@]3(O)CC [SN-38]; conditions: max 0.3 µM
Outline: as §1

Alisertib = compound: COc1cc(Nc2ncc3c(n2)-c2ccc(Cl)cc2C(c2c(F)cccc2OC)=NC3)ccc1C(=O)O [Alisertib]; conditions: max 10 µM
Outline: as §1

Venetoclax = compound: CC1(C)CCC(CN2CCN(c3ccc(C(=O)NS(=O)(=O)c4ccc(NCC5CCOCC5)c([N+](=O)[O-])c4)c(Oc4cnc5[nH]ccc5c4)c3)CC2)=C(c2ccc(Cl)cc2)C1 [Venetoclax]; conditions: max 1 µM
Outline: as §1

AZD2811 = compound: CCN(CCO)CCCOc1ccc2c(Nc3cc(CC(=O)Nc4cccc(F)c4)[nH]n3)ncnc2c1 [AZD2811]; conditions: max 1 µM
Outline: as §1

[1] = compound: O=C(Nc1ccc2[nH]nc(-c3ccncc3)c2c1)[C@@H]1CCN(CC(=O)N2CCN(c3ccc(-c4ncccn4)cc3)CC2)C1; conditions: max 5 µM
Outline: as §1

AZD8186 = compound: C[C@@H](Nc1cc(F)cc(F)c1)c1cc(C(=O)N(C)C)cc2c(=O)cc(N3CCOCC3)oc12 [AZD8186]; conditions: max 10 µM
Outline: as §1

Trametinib = compound: CC(=O)Nc1cccc(-n2c(=O)n(C3CC3)c(=O)c3c(Nc4ccc(I)cc4F)n(C)c(=O)c(C)c32)c1 [Trametinib]; conditions: max 1 µM
Outline: as §1

Cell Line | IC50, cell viability 72 h (AZD0156) [nM] | IC50, cell viability 72 h (Savolitinib) [nM] | IC50, cell viability 72 h (Gemcitabine) [nM] | IC50, cell viability 72 h (Etoposide) [nM] | IC50, cell viability 72 h (AZD5363) [nM] | IC50, cell viability 72 h (AZD1390) [nM] | IC50, cell viability 72 h (AZD5153) [nM] | IC50, cell viability 72 h (AZD4320) [nM] | IC50, cell viability 72 h (Palbociclib) [nM] | IC50, cell viability 72 h (AZD6738) [nM] | IC50, cell viability 72 h (SRA737) [nM] | IC50, cell viability 72 h (SG3199) [nM] | IC50, cell viability 72 h (Olaparib) [nM] | IC50, cell viability 72 h (5-Fluorouracil) [nM] | IC50, cell viability 72 h (Lapatinib) [nM] | IC50, cell viability 72 h (Gefitinib) [nM] | IC50, cell viability 72 h (Selumetinib) [nM] | IC50, cell viability 72 h (AZD5991) [nM] | IC50, cell viability 72 h (Doxorubicin) [nM] | IC50, cell viability 72 h (Paclitaxel) [nM] | IC50, cell viability 72 h (Crizotinib) [nM] | IC50, cell viability 72 h (MK-2206) [nM] | IC50, cell viability 72 h (Dasatinib) [nM] | IC50, cell viability 72 h (Carboplatin) [nM] | IC50, cell viability 72 h (AZD7648) [nM] | IC50, cell viability 72 h (Taselisib) [nM] | IC50, cell viability 72 h (Prexasertib) [nM] | IC50, cell viability 72 h (AZD1775) [nM] | IC50, cell viability 72 h (SN-38) [nM] | IC50, cell viability 72 h (Alisertib) [nM] | IC50, cell viability 72 h (Venetoclax) [nM] | IC50, cell viability 72 h (AZD2811) [nM] | IC50, cell viability 72 h [1] [nM] | IC50, cell viability 72 h (AZD8186) [nM] | IC50, cell viability 72 h (Trametinib) [nM]
8305C (Thyroid Gland Carcinoma) | > 3000 | > 1000 | > 300 | > 10000 | > 10000 | > 300 | > 1000 | > 1000 | > 10000 | > 10000 | > 10000 | > 1 | > 10000 | > 20000 | > 10000 | > 10000 | > 10000 | > 1000 | > 1000 | 159 | > 10000 | > 10000 | 1150 | > 10000 | > 10000 | 1280 | 87.8 | 1940 | > 300 | > 10000 | > 1000 | > 1000 | > 5000 | > 10000 | 902
CAL-54 (Kidney Carcinoma) | > 3000 | > 1000 | 23.4 | > 10000 | 9910 | > 300 | 102 | > 1000 | 4130 | 5490 | > 10000 | > 1 | > 10000 | > 20000 | 7990 | 5890 | > 10000 | > 1000 | 936 | 399 | > 10000 | 3360 | 33.6 | > 10000 | > 10000 | 2280 | 38.5 | 452 | 15.6 | 4710 | > 1000 | > 1000 | > 5000 | 873 | > 1000
CAPAN-1 (Pancreatic Carcinoma) | > 3000 | > 1000 | 130 | > 10000 | > 10000 | > 300 | > 1000 | > 1000 | > 10000 | > 10000 | > 10000 | > 1 | > 10000 | > 20000 | > 10000 | > 10000 | > 10000 | > 1000 | > 1000 | 188 | > 10000 | > 10000 | > 2000 | > 10000 | > 10000 | > 10000 | 485 | 1230 | 38.8 | > 10000 | > 1000 | > 1000 | 2790 | > 10000 | 349
EN (Endometrial Carcinoma) | > 3000 | > 1000 | > 300 | > 10000 | 5500 | > 300 | > 1000 | > 1000 | > 10000 | 8640 | > 10000 | > 1 | > 10000 | > 20000 | > 10000 | > 10000 | > 10000 | > 1000 | > 1000 | 798 | > 10000 | 8080 | > 2000 | > 10000 | > 10000 | 2730 | 41.3 | 770 | > 300 | 3670 | > 1000 | 947 | > 5000 | > 10000 | > 1000
HARA (Squamous Cell Lung Carcinoma) | > 3000 | > 1000 | 56 | 9590 | 9160 | > 300 | 223 | > 1000 | 7420 | 1730 | 1000 | > 1 | > 10000 | 18300 | 7690 | > 10000 | > 10000 | > 1000 | 577 | 3.63 | > 10000 | > 10000 | > 2000 | > 10000 | > 10000 | 2150 | 13.9 | 207 | 44.5 | 3820 | > 1000 | > 1000 | 3840 | > 10000 | 858
